This passage reports ΔTm results from ChEMBL document CHEMBL1145498, “A systematic interaction map of validated kinase inhibitors with Ser/Thr kinases” (Proc Natl Acad Sci U S A, 2007).

Assay [1] deals with Calcium/calmodulin-dependent protein kinase type 1G (Homo sapiens) (UniProt Q96NX5).
Assay [2] deals with Calcium/calmodulin-dependent protein kinase type II subunit alpha (Homo sapiens) (UniProt Q9UQM7).
The target of assay [3] is Calcium/calmodulin-dependent protein kinase type II subunit beta (Homo sapiens) (UniProt Q13554).
For assay [4], the target named is Calcium/calmodulin-dependent protein kinase type II subunit delta (Homo sapiens) (UniProt Q13557).
For assay [5], the target named is Cyclin-dependent kinase 6 (Homo sapiens) (UniProt Q00534).
The target of assay [6] is Serine/threonine-protein kinase Chk2 (Homo sapiens, UniProt O96017).
Assay [7] deals with Glycogen synthase kinase-3 beta (Homo sapiens, UniProt P49841).
Assay [8] deals with Tyrosine-protein kinase JAK1 (Homo sapiens) (UniProt P23458).
Assay [9] deals with T1, Mitogen-activated protein kinase kinase kinase 5 (Homo sapiens) (UniProt Q99683).
T1 sequence (whole entry): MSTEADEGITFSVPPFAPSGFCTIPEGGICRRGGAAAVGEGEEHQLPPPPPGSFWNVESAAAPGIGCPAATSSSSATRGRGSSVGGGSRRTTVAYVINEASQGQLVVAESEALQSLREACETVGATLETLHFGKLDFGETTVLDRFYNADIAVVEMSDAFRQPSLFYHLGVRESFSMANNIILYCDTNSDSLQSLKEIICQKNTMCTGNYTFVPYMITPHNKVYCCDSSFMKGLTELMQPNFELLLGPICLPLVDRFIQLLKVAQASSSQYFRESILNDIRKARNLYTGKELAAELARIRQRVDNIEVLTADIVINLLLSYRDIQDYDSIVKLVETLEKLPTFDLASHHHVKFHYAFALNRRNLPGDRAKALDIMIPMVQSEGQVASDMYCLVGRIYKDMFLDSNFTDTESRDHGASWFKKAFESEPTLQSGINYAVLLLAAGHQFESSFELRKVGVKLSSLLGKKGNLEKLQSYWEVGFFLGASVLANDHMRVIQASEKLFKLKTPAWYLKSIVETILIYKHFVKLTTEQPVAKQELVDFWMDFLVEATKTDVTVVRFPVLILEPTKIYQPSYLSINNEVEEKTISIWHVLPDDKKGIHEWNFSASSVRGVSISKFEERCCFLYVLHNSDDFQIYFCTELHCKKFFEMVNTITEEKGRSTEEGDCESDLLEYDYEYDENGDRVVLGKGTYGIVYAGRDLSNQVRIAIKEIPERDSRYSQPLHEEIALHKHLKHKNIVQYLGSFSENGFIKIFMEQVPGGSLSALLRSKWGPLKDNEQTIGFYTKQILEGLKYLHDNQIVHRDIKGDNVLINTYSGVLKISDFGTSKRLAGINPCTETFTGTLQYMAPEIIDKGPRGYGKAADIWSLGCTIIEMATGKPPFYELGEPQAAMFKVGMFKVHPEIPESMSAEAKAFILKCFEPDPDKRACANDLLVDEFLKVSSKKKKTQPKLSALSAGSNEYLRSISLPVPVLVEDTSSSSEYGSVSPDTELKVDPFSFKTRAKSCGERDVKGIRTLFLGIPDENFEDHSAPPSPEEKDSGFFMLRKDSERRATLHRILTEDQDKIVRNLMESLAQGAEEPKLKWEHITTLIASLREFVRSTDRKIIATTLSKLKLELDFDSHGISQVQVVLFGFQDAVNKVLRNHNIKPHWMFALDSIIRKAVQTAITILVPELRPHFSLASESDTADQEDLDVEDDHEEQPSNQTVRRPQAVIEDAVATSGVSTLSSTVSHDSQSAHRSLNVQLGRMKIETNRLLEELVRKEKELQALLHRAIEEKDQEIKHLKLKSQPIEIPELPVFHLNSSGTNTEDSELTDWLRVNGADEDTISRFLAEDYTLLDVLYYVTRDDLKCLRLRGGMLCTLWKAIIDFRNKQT

Assay [10] addresses Mitogen-activated protein kinase 3 (Homo sapiens, UniProt P27361).
Assay [11] has as its target Serine/threonine-protein kinase 26 (Homo sapiens) (UniProt Q9P289).
Assay [12] has as its target Serine/threonine-protein kinase Nek6 (Homo sapiens) (UniProt Q9HC98).
Assay [13] concerns the target Serine/threonine-protein kinase PAK 5 (Homo sapiens) (UniProt Q9P286).
For assay [14], the target named is Serine/threonine-protein kinase pim-2 (Homo sapiens, UniProt Q9P1W9).
Assay [15] addresses Serine/threonine-protein kinase PLK1 (Homo sapiens) (UniProt P53350).
Assay [16] has as its target Serine/threonine-protein kinase 10 (Homo sapiens) (UniProt O94804).
Assay [17] addresses Serine/threonine-protein kinase 16 (Homo sapiens) (UniProt O75716).
Assay [18] addresses T2, Serine/threonine-protein kinase 17A (Homo sapiens) (UniProt Q9UEE5).
T2 sequence (whole entry): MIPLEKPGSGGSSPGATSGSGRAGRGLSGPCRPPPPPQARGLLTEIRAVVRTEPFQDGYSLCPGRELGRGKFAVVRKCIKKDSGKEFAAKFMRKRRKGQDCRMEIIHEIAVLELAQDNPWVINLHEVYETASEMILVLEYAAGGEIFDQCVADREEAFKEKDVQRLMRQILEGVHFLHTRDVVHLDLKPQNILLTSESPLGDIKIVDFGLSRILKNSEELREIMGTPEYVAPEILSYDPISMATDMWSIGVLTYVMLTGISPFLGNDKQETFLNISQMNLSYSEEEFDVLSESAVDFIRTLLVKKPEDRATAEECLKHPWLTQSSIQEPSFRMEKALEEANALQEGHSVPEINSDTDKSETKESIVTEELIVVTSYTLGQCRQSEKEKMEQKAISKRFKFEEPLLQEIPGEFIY

Assay [19] addresses Serine/threonine-protein kinase 26 (Homo sapiens) (UniProt Q9P289). The source holds these as a separate data set.
For assay [20], the target named is TRAF2 and NCK-interacting protein kinase (Homo sapiens) (UniProt Q9UKE5).

Sequence of Serine/threonine-protein kinase pim-2 (Q9P1W9 whole entry, looked up): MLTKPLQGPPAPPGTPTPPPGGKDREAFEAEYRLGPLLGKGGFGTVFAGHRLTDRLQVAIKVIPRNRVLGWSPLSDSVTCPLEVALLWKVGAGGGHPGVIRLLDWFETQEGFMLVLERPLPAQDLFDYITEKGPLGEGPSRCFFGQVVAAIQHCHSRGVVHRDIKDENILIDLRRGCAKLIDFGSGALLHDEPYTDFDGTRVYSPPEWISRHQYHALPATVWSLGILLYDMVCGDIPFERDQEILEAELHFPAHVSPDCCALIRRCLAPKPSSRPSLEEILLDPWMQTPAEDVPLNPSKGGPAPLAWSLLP
Sequence of Serine/threonine-protein kinase PLK1 (Homo sapiens) (P53350 whole entry): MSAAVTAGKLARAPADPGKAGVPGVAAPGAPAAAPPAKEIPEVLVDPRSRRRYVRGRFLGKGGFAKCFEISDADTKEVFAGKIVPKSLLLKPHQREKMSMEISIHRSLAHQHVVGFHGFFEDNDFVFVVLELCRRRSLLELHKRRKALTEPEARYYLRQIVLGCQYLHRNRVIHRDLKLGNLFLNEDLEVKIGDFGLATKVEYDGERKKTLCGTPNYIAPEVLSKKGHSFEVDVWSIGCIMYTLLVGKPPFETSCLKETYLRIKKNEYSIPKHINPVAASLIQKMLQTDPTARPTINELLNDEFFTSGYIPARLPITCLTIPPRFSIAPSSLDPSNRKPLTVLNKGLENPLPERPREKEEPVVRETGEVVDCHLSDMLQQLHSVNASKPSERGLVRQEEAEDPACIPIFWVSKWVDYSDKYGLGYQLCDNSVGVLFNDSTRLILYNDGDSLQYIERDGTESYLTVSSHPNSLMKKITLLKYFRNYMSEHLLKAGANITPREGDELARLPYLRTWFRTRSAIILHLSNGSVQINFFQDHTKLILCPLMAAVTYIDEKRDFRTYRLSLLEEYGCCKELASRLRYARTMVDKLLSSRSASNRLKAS
Sequence of Serine/threonine-protein kinase Nek6 (Homo sapiens) (Q9HC98 whole entry): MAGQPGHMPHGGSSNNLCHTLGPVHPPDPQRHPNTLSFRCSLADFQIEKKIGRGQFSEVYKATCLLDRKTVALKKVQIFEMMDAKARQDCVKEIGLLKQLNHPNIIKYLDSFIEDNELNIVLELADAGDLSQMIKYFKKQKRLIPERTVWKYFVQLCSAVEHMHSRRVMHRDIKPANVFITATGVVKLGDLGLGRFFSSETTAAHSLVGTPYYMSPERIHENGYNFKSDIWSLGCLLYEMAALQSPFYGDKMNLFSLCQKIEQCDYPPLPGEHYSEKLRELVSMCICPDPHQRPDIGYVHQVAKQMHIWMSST
Sequence of Calcium/calmodulin-dependent protein kinase type II subunit alpha (Homo sapiens) (Q9UQM7 whole entry): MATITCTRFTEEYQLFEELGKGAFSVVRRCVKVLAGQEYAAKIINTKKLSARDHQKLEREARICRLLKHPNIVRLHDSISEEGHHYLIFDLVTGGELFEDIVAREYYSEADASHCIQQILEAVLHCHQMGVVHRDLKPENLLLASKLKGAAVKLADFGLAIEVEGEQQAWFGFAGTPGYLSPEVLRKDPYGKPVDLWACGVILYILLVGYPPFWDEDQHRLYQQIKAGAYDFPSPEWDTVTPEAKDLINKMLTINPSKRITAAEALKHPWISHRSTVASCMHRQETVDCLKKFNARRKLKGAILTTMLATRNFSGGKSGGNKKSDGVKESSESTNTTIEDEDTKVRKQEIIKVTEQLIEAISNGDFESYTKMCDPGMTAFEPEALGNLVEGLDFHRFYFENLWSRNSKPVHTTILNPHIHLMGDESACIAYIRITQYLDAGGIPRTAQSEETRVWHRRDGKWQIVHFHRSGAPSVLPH
Sequence of Tyrosine-protein kinase JAK1 (Homo sapiens) (P23458 whole entry): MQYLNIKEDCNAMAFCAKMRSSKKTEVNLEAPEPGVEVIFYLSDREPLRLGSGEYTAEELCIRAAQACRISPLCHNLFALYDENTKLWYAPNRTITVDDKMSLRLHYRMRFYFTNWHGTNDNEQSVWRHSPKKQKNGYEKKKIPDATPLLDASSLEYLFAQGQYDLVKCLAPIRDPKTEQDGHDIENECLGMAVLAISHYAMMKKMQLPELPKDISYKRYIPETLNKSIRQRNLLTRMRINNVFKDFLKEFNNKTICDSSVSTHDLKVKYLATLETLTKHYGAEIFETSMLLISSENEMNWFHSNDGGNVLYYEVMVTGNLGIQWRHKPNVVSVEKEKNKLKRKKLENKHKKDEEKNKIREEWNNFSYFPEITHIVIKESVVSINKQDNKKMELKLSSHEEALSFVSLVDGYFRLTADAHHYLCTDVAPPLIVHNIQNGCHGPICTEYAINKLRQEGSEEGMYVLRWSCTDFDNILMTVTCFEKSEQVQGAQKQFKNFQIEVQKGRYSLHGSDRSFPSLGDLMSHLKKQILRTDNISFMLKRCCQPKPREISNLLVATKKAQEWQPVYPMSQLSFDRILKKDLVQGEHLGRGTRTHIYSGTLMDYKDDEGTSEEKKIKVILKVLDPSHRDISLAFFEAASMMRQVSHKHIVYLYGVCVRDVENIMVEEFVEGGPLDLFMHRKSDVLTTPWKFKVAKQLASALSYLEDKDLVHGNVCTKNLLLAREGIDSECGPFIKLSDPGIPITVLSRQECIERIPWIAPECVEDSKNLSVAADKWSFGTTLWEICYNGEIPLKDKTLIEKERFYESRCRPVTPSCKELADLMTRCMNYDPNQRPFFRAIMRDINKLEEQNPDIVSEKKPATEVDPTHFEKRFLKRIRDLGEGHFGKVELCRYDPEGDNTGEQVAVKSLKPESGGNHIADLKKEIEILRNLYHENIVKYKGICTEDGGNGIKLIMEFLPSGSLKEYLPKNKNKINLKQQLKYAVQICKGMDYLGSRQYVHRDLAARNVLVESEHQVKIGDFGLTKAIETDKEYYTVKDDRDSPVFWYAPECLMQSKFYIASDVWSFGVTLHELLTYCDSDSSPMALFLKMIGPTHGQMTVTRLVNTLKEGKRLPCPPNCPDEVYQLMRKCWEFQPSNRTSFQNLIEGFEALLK
Sequence of Serine/threonine-protein kinase 26 (Homo sapiens) (Q9P289 2-416 limits assumed): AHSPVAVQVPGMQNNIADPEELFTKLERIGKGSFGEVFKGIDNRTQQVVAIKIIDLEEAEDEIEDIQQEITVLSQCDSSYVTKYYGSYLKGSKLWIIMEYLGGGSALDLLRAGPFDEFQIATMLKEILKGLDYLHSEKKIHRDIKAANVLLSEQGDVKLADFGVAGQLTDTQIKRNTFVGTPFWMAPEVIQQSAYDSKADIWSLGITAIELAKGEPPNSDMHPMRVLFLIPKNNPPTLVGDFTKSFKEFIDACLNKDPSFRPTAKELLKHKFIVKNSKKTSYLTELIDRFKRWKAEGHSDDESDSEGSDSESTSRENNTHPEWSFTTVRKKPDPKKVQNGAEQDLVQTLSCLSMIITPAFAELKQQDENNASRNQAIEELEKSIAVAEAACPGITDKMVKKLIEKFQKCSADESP
Sequence of Mitogen-activated protein kinase 3 (P27361 whole entry): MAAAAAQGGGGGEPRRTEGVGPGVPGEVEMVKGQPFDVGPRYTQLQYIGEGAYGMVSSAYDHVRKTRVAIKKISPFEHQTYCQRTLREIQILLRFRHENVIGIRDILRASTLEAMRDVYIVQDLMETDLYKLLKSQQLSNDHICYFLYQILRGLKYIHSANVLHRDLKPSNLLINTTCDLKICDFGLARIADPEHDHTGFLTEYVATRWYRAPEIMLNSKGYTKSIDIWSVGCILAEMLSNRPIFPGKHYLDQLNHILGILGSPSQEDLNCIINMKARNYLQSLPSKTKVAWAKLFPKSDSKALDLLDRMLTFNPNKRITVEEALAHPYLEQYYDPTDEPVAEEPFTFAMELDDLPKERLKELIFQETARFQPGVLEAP
Sequence of Calcium/calmodulin-dependent protein kinase type II subunit beta (Homo sapiens) (Q13554 whole entry): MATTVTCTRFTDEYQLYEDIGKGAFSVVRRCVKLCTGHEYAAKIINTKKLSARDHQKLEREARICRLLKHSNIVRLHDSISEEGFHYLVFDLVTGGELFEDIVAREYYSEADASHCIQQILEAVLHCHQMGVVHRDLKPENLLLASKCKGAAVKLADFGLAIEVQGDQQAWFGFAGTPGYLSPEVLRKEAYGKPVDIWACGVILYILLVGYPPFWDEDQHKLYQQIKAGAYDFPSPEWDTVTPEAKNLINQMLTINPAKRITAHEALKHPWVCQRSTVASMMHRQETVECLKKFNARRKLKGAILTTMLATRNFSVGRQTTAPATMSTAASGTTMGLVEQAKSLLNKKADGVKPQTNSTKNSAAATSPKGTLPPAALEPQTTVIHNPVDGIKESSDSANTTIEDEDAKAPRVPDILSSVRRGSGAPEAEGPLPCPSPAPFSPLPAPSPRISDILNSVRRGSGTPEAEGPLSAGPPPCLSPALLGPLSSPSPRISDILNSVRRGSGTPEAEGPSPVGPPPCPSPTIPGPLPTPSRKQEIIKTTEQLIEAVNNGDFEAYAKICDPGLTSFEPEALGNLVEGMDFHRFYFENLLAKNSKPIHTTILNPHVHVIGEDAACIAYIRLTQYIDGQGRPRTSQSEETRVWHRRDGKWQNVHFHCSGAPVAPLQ
Sequence of Calcium/calmodulin-dependent protein kinase type 1G (Homo sapiens) (Q96NX5 whole entry): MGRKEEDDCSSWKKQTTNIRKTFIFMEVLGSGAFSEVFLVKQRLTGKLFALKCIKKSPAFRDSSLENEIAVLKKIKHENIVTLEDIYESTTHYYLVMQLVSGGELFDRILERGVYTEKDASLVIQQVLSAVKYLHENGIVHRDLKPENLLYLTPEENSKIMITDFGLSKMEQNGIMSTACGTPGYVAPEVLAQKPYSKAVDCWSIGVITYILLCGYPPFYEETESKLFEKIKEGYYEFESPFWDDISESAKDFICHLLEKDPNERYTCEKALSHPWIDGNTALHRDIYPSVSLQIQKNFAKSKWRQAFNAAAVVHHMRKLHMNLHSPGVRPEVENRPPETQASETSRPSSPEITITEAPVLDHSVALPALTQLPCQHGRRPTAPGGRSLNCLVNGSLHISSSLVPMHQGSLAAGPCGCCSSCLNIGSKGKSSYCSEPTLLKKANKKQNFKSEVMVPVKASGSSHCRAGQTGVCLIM

Broadly, the ΔTm is the shift of the melting midpoint relative to a reference. Regarding `Cn1cc(/C=C2/C(=O)Nc3ccc(S(N)(=O)=O)cc32)c2ccccc21`, the ΔTm is 0.5 °C in [1]; 2.7 °C in assay [2]; 0.1 °C in assay [3]; 2.5 °C in [4]; -0.2 °C in assay [5]; 10.6 °C in assay [6]. Besides, the thermal shift (ΔTm) in [7] was 11.6 °C; in assay [8], 4.3 °C; in [9] it was 1 °C; in assay [10], 1.2 °C; in [11], 5.7 °C; in [12], 1.7 °C. Besides, the ΔTm was 4.3 °C in [13]; 8.2 °C in [14]; -0.7 °C in [15]; 6.3 °C in [16]; 1.7 °C in [17]; 6.1 °C in assay [18]. Besides, the ΔTm was -0.2 °C in [19] and 1.3 °C in [20].

For `CN1CCC(Nc2ncc3ncnc(Nc4ccc(F)c(Cl)c4)c3n2)CC1` [FALNIDAMOL], the ΔTm in assay [1] is 0.5 °C; in assay [2], -0.2 °C; in assay [3], -0.4 °C; in assay [4], 0.5 °C; in [5] it was 1 °C; in [6] it was 0.2 °C. Also, the ΔTm in [7] came to 1.7 °C; in assay [8], 0.5 °C; in assay [9] it was 1.3 °C; in assay [10] it was 1.7 °C; in assay [11], 6.7 °C; in [12], 1.5 °C. Further, the ΔTm in [13] amounted to 2.5 °C; in [14] it was 0.1 °C; in assay [15] it was 1.1 °C.

For the compound `Clc1ccc(Nc2nnc(Cc3ccncc3)c3ccccc23)cc1`, the ΔTm in assay [1] was 0.5 °C; in assay [2], 0.4 °C; in assay [3] it was -0.3 °C; in assay [4] it was -0.4 °C; in assay [5] it was 0.3 °C; in assay [6] it was 0.2 °C. Also, the shift in melting temperature (ΔTm) in [7] is 0.3 °C; in assay [8], 1.3 °C; in [9], -0.1 °C; in assay [10] it was 0 °C; in assay [11], -0.6 °C; in assay [12] it was 0.1 °C. In addition, the ΔTm was -0.7 °C in assay [13], -0.3 °C in assay [14] and 0 °C in assay [15].

Turning to `Cc1nc(Nc2ncc(C(=O)Nc3c(C)cccc3Cl)s2)cc(N2CCN(CCO)CC2)n1`, the ΔTm in assay [1] was 0.5 °C; in assay [2] it was 0 °C; in assay [3], -0.3 °C; in [4], 0 °C; in assay [5], -0.1 °C; in [6], 1.2 °C. The ΔTm in [7] was 1.9 °C; in assay [8] it was 3.8 °C; in [9], 0.2 °C; in assay [10], 0 °C; in assay [11], -0.4 °C; in [12] it was 0.2 °C. In addition, the ΔTm in assay [13] is -0.6 °C; in assay [14] it was 0 °C; in [15], 2.4 °C.

In the case of `CCN(CC)CCNC(=O)c1c(C)[nH]c(/C=C2\C(=O)Nc3ccc(F)cc32)c1C`, the ΔTm in [2] turned out to be 5 °C; in [3], 2.2 °C; in assay [4], 2.3 °C; in [5] it was 2.1 °C; in [6] it was 12.9 °C; in assay [7] it was 12.1 °C. The ΔTm is 5.5 °C in assay [8]; -0.6 °C in assay [9]; 0.9 °C in assay [10]; 4.7 °C in [11]; 3.4 °C in assay [12]; 1.7 °C in assay [13]. For the same compound, the ΔTm in assay [14] is 0 °C; in [15] it was 1.5 °C; in assay [16], 11.3 °C; in assay [17] it was 3.3 °C; in assay [18] it was 8.3 °C; in [19], -0.1 °C. In assay [20], the ΔTm stood at 0.7 °C.
